Assay results reported in ChEMBL document CHEMBL5518238, “Structure-Activity Relationship (SAR) Studies of Novel Monovalent AR/AR-V7 Dual Degraders with Potent Efficacy against Advanced Prostate Cancer” (J Med Chem, 2024).
Activity calls are given as the source filed them. The calls are words filed in the database; no cut-off is given here.

Key:
[1] = Toxicity in NSG mouse xenografted with human 22Rv1 cells assessed as spleen damage t at 30 mg/kg, IG administered once daily for 21 days by H and E staining based analysis; assay type: organism-based, CWR22R; details: in vivo, po, 504 h, time 21 day
CWR22R [2] = assay: Induction of apoptosis in human 22Rv1 cells assessed as effect on Bcl-xL level incubated for 24 hrs by Western blot analysis; assay type: functional, cell-based; details: dose <= 10.0 µM
CWR22R [3] = assay: Inhibition of colony formation in human 22Rv1 cells incubated for 2 weeks by crystal violet staining based analysis; assay type: functional, cell-based; details: dose 0.1-5 µM
CWR22R [4] = assay: Downregulation of NCAPD3 mRNA expression in human 22Rv1 cells at 10 uM incubated for 24 hrs by qRT-PCR analysis; assay type: functional, cell-based
[5] = Toxicity in NSG mouse xenografted with human 22Rv1 cells assessed as effect on body weight at 30 mg/kg, IG administered once daily for 21 days; assay type: organism-based, CWR22R; details: in vivo, po, 504 h, time 21 day
CWR22R [6] = assay: Downregulation of MYC mRNA expression in human 22Rv1 cells at 10 uM incubated for 24 hrs by qRT-PCR analysis; assay type: functional, cell-based
[7] = tested on: Androgen receptor (Homo sapiens), P10275 [UNDEFINED MUTATION]; assay: Induction of AR-V7 degradation in human 22Rv1 cells at 10 uM incubated for 24 hrs in presence of CHX by Western blot analysis; assay type: cell-based
CWR22R [8] = assay: Downregulation of KLK2 mRNA expression in human 22Rv1 cells incubated for 24 hrs by qRT-PCR analysis; assay type: functional, cell-based; details: dose 5-10 µM
[9] = Toxicity in NSG mouse xenografted with human 22Rv1 cells assessed as liver damage t at 30 mg/kg, IG administered once daily for 21 days by H and E staining based analysis; assay type: organism-based, CWR22R; details: in vivo, po, 504 h, time 21 day
CWR22R [10] = assay: Induction of apoptosis in human 22Rv1 cells assessed as effect on PARP1 level incubated for 24 hrs by Western blot analysis; assay type: functional, cell-based; details: dose <= 10.0 µM
CWR22R [11] = assay: Induction of apoptosis in human 22Rv1 cells assessed as effect on Caspase-3 level incubated for 24 hrs by Western blot analysis; assay type: functional, cell-based; details: dose <= 10.0 µM
[12] = Antiproliferative activity against human L02 cells assessed as inhibition of cell growth incubated for 48 hrs by CCK-8 assay; assay type: toxicity, cell-based
CWR22R [13] = assay: Downregulation of KLK3 mRNA expression in human 22Rv1 cells incubated for 24 hrs by qRT-PCR analysis; assay type: functional, cell-based; details: dose 5-10 µM
[14] = target: T1, Androgen receptor (Homo sapiens) (UniProt P10275); assay: Induction of AR degradation in human 22Rv1 cells at 20 uM incubated for 24 hrs in presence of Bortezomib by Western blot analysis; assay type: cell-based
T1 sequence (whole entry): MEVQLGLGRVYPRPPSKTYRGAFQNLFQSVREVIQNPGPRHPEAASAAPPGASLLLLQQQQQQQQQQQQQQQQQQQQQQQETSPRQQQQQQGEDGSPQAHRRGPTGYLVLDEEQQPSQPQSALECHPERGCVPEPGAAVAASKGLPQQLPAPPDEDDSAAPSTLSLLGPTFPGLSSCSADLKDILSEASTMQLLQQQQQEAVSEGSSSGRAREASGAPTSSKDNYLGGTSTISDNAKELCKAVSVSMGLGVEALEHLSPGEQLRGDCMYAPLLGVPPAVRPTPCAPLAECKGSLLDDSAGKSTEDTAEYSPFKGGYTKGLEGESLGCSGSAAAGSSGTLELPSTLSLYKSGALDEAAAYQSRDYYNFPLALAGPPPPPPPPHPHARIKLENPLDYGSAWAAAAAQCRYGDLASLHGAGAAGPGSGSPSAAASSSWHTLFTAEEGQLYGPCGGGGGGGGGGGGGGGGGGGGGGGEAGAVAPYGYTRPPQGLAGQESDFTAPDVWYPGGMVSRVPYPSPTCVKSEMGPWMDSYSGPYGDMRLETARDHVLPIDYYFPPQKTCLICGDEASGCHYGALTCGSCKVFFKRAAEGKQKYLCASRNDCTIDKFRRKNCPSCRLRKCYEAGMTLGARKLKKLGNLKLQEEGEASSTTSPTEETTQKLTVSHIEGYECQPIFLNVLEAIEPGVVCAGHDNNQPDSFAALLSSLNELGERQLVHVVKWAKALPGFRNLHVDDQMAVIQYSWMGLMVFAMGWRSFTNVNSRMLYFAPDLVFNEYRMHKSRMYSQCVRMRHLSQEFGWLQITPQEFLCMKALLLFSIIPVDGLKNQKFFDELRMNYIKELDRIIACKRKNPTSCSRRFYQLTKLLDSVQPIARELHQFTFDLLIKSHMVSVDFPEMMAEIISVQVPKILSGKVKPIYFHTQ

CWR22R [15] = assay: Induction of cell cycle arrest in human 22Rv1 cells assessed as accumulation of cells at G0/G1 phase at 1 uM incubated for 24 hrs by DAPI staining based flow cytometric analysis (reference value: 26.3 %); assay type: functional
CWR22R [16] = assay: Downregulation of MMP16 mRNA expression in human 22Rv1 cells at 10 uM incubated for 24 hrs by qRT-PCR analysis; assay type: functional, cell-based
CWR22R [17] = assay: Downregulation of AR expression in human 22Rv1 cells at 5 uM incubated for 24 hrs by Western blot analysis; assay type: functional, cell-based
[18] = Toxicity in NSG mouse xenografted with human 22Rv1 cells assessed as kidney damage t at 30 mg/kg, IG administered once daily for 21 days by H and E staining based analysis; assay type: organism-based, CWR22R; details: in vivo, po, 504 h, time 21 day
CWR22R [19] = assay: Downregulation of ABHD2 mRNA expression in human 22Rv1 cells at 10 uM incubated for 24 hrs by qRT-PCR analysis; assay type: functional, cell-based
[20] = MRT (0 to t) in Sprague-Dawley rat at 50 mg/kg, po by LC-MS/MS analysis; assay type: ADME, organism-based; details: in vivo
CWR22R [21] = assay: Downregulation of BCHE mRNA expression in human 22Rv1 cells at 10 uM incubated for 24 hrs by qRT-PCR analysis; assay type: functional, cell-based
[22] = target: T1, Androgen receptor (Homo sapiens); assay: Binding affinity to AR (unknown origin) assessed as thermal stabilization at 10 uM incubated for 2 hrs by CETSA analysis; assay type: cell-based; details: 22Rv1
[23] = target: T1, Androgen receptor (Homo sapiens); assay: Binding affinity to AR-NTD in human 22Rv1 cels by SPR analysis
CWR22R [24] = assay: cells; assay type: functional, cell-based; details: Homo sapiens, 22Rv1, 48 h
Description: Antiproliferative activity against AR/AR-V7 positive human 22Rv1 cells assessed as inhibition of cell growth incubated for 48 hrs by CCK-8 assay

CWR22R [25] = assay: Downregulation of AR-V7 expression in human 22Rv1 cells at 5 uM incubated for 24 hrs by Western blot analysis; assay type: functional, cell-based
CWR22R [26] = assay: Induction of apoptosis in human 22Rv1 cells at 1 uM incubated for 24 hrs by Annexin V-FITC/PI staining based flow cytometric analysis (reference value: 3.70 %); assay type: functional
[27] = Toxicity in NSG mouse xenografted with human 22Rv1 cells assessed as heart damage t at 30 mg/kg, IG administered once daily for 21 days by H and E staining based analysis; assay type: organism-based, CWR22R; details: in vivo, po, 504 h, time 21 day
CWR22R [28] = assay: Induction of apoptosis in human 22Rv1 cells at 10 uM incubated for 24 hrs by Annexin V-FITC/PI staining based flow cytometric analysis (reference value: 3.70 %); assay type: functional
CWR22R [29] = assay: Downregulation of KLK3 mRNA expression in human 22Rv1 cells at 10 uM incubated for 24 hrs by qRT-PCR analysis; assay type: functional, cell-based
[30] = target: T1, Androgen receptor (Homo sapiens); assay: Induction of AR degradation in human 22Rv1 cells at 10 uM incubated for 24 hrs in presence of CHX by Western blot analysis; assay type: cell-based

## CC1(C)C(=O)N(c2ccc(C#N)c(C(F)(F)F)c2)C(=O)N1CCNc1ccc(F)c2ncccc12
[1]
  Activity: Non-Toxic
CWR22R [2]
  Activity: Dose-Dependent Effect
CWR22R [3]
  inhibition: Dose-Dependent Effect
CWR22R [4]
  Activity: Active
[5]
  Activity: Non-Toxic
CWR22R [6]
  Activity: Active
[7]
  Activity: Active
CWR22R [8]
  Activity: Dose-Dependent Effect
[9]
  Activity: Non-Toxic
CWR22R [10]
  Activity: Dose-Dependent Effect
CWR22R [11]
  Activity: Dose-Dependent Effect
[12]
  IC50 at 48 h: > 100000 nM
CWR22R [13]
  Activity: Dose-Dependent Effect
[14]
  Activity: Active
CWR22R [15]
  Activity: 41.5%
CWR22R [16]
  Activity: Active
CWR22R [17]
  Activity: Active
[18]
  Activity: Non-Toxic
CWR22R [19]
  Activity: Active
[20]
  MRT last: 3.2 h
CWR22R [21]
  Activity: Active
[22]
  Activity: inactive
[23]
  Activity: Active
CWR22R [24]
  IC50: 900 nM
CWR22R [25]
  Activity: Active
CWR22R [26]
  Activity: 11.94%
[27]
  Activity: Non-Toxic
CWR22R [28]
  Activity: 30.91%
CWR22R [29]
  Activity: Active
[30]
  Activity: Active
